Experimental data reported in patent US7115621B2, “Chemical compounds” (Lilly Icos LLC, priority 2001, dated 2006).

Tests used:
[1] = target: recombinant human PDE5 (Homo sapiens, UniProt O76074); assay: Inhibitory effect on cGMP-PDE, one-step assay, human recombinant PDE5; format: biochemical; conditions: Table 1, Examples
Description: The compounds of structural formula (I) were tested for an ability to inhibit PDE5. The ability of a compound to inhibit PDE5 activity is related to the IC50 value for the compound, i.e., the concentration of inhibitor required for 50% inhibition of enzyme activity. The IC50 value for compounds of structural formula (I) were determined using recombinant human PDE5.
Recombinant production of human PDE1B, PDE2, PDE4A, PDE4B, PDE4C, PDE4D, PDE5, and PDE7 was carried out similarly to that described in Example 7 of U.S. Pat. No. 5,702,936, incorporated herein by reference, except that the yeast transformation vector employed, which is derived from the basic ADH2 plasmid described in Price et al., Methods in Enzymology, 185, pp. 308–318 (1990), incorporated yeast ADH2 promoter and terminator sequences and the Saccharomyces cerevisiae host was the protease-deficient strain BJ2-54 deposited on Aug. 31, 1998 with the American Type Culture Collection, Manassas, Virginia, under accession number ATCC 74465. Transformed host cells were grown in 2×SC-leu medium, pH 6.2, with trace metals, and vitamins. After 24 hours, YEP medium-containing glycerol was added to a final concentration of 2×YET/3% glycerol. Approximately 24 hr later, cells were harvested, washed, and stored at −70° C.
Phosphodiesterase activity of the preparations was determined as follows. PDE assays utilizing a charcoal separation technique were performed essentially as described in Loughney et al. (1996). In this assay, PDE activity converts [32P]cAMP or [32P]cGMP to the corresponding [32P]5′-AMP or [32P]5′-GMP in proportion to the amount of PDE activity present. The [32P]5′-AMP or [32P]5′-GMP then was quantitatively converted to free [32P]phosphate and unlabeled adenosine or guanosine by the action of snake venom 5′-nucleotidase. […] The assay was performed at 30° C. in a 100 μL reaction mixture containing (final concentrations) 40 mM Tris HCl (pH 8.0), 1 μM ZnSO4, 5 mM MgCl2, and 0.1 mg/mL bovine serum albumin (BSA). PDE enzyme was present in quantities that yield <30% total hydrolysis of substrate (linear assay conditions). The assay was initiated by addition of substrate (1 mM [32P]cAMP or cGMP), and the mixture was incubated for 12 minutes. Seventy-five (75) μg of Crotalus atrox venom then was added, and the incubation was continued for 3 minutes (15 minutes. total). The reaction was stopped by addition of 200 μL of activated charcoal (25 mg/mL suspension in 0.1 M NaH2PO4, pH 4). After centrifugation (750×g for 3 minutes) to sediment the charcoal, a sample of the supernatant was taken for radioactivity determination in a scintillation counter and the PDE activity was calculated.
Cell pellets (29 g) were thawed on ice with an equal volume of Lysis Buffer (25 mM Tris HCl, pH 8, 5 mM MgCl2, 0.25 mM DTT, 1 mM benzamidine, and 10 μM ZnSO4). Cells were lysed in a Microfluidizer® (Microfluidics Corp.) using nitrogen at 20,000 psi. The lysate was centrifuged and filtered through 0.45 μm disposable filters. The filtrate was applied to a 150 mL column of Q SEPHAROSE® FastFlow (Pharmacia). The column was washed with 1.5 volumes of Buffer A (20 mM Bis-Tris Propane, pH 6.8, 1 mM MgCl2, 0.25 mM DTT, 10 μM ZnSO4) and eluted with a step gradient of 125 mM NaCl in Buffer A followed by a linear gradient of 125–1000 mM NaCl in Buffer A. Active fractions from the linear gradient were applied to a 180 mL hydroxyapatite column in Buffer B (20 mM Bis-Tris Propane (pH 6.8), 1 mM MgCl2, 0.25 mM DTT, 10 μM ZnSO4, and 250 mM KCl). After loading, the column was washed with 2 volumes of Buffer B and eluted with a linear gradient of 0–125 mM potassium phosphate in Buffer B. Active fractions were pooled, precipitated with 60% ammonium sulfate, and resuspended in Buffer C (20 mM Bis-Tris Propane, pH 6.8, 125 mM NaCl, 0.5 mM DTT, and 10 μM ZnSO4). The pool was applied to a 140 mL column of SEPHACRYL® S-300 HR and eluted with Buffer C. Active fractions were diluted to 50% glycerol and stored at −20° C. […]

[2] = target: T1, PDE5 (bovine aorta) (Bos taurus, UniProt Q28156); assay: Inhibitory effect on cGMP-PDE, one-step assay, enzyme from bovine aorta; format: biochemical; conditions: Table 1, Examples; footnote 1) vs. bovine aorta
T1 construct: from tissue; host or cells: bovine aorta

SMILES | melting point | IC50 [1] | IC50 [2]
COC(=O)[C@H]1Cc2c([nH]c3ccccc23)[C@@H](c2ccc3c(c2)OCO3)N1C(=O)Oc1ccc([N+](=O)[O-])cc1 [Example 3, (−)-(1R,3R)-1-Benzo[1,3]dioxol-5-yl-1,3,4,9-tetrahydro-beta-carboline-2,3-dicarboxylic acid 3-methyl ester 2-(4-nitrophenyl)ester] | 175 to 187 °C | 0.241 µM | –
CCCCNC(=O)N1[C@@H](c2cccnc2)c2[nH]c3ccccc3c2C[C@H]1C(=O)OCC [Example 4] | – | – | 0.2 µM
COC(=O)[C@@H]1Cc2c([nH]c3ccccc23)[C@H](c2ccc3c(c2)OCO3)N1C [Example 6] | – | 0.23 µM | –
CC(=O)N1[C@H](c2ccc3c(c2)OCO3)c2[nH]c3ccccc3c2C[C@@H]1C(=O)N1CCOCC1 [Example 9, (1R)-(+)-1-[benzo[1,3]dioxol-5-yl-3-(morpholine-4-carbonyl)-1,3,4,9-tetrahydro-β-carbolin-2-yl]-ethanone] | – | 0.261 µM | –
CNC(=O)[C@H]1Cc2c([nH]c3ccccc23)[C@@H](c2ccc3c(c2)OCO3)N1C(=O)/C=C/c1ccccc1 [Example 12] | – | 0.03 µM | –

Now from value to compound:

melting point | IC50 [1] | IC50 [2] | SMILES
175 to 178 °C | 0.044 µM | – | CN(C)C(=O)[C@H]1Cc2c([nH]c3ccccc23)[C@@H](c2ccc3c(c2)OCO3)N1C(=O)/C=C/c1ccccc1 [Example 1, (1R,3R)-1-benzo[1,3]dioxol-5-yl-2-(3-phenylacryloyl)-2,3,4,9-tetrahydro-1H-β-carboline-3-carboxylic acid dimethylamide]
– | – | 0.49 µM | COC(=O)CN1[C@@H](c2ccc(OC)cc2)c2[nH]c3ccccc3c2C[C@H]1C(=O)NCc1ccccc1 [Example 5]
– | – | 1 µM | COc1ccc([C@@H]2c3[nH]c4ccccc4c3C[C@@H](C(=O)NCc3ccccc3)N2C(C)=O)cc1 [Example 7]
163 to 165 °C | 0.502 µM | – | CCCNC(=O)[C@H]1Cc2c([nH]c3ccccc23)[C@@H](c2ccc3c(c2)OCO3)N1C(C)=O [Example 8, (1R)-(+)-2-acetyl-1-benzo[1,3]dioxol-5-yl-2,3,4,9-tetrahydro-1H-β-carboline-3-carboxylic acid propylamide]
114 to 117 °C | 0.629 µM | – | CCCCNC(=O)[C@H]1Cc2c([nH]c3ccccc23)[C@@H](c2ccc3c(c2)OCO3)N1C(=O)/C=C/c1ccccc1 [Example 11, (1R,3R)-(+)-1-benzo[1,3]dioxol-5-yl-2-(3-phenylacryloyl)-2,3,4,9-tetrahydro-1H-β-carboline-3-carboxylic acid butylamide]
– | 0.42 µM | – | CNC(=O)[C@H]1Cc2c([nH]c3ccccc23)[C@@H](c2ccc3c(c2)OCO3)N1C(=O)/C=C/c1ccc(Cl)cc1 [Example 13]
